Assay results as given in publication PMC5218480 (PLoS ONE, 2017).

Tested on: MV-4-11 cells
Assay: Gene expression microarray analysis (Affymetrix PrimeView) and GSEA
Assay type: cell-based, human
Design: RFU PODN (11730768_x_at) / Fold change /veh PODN (11730768_x_at) / RFU LINC00158 (11744669_a_at) / Fold change /veh LINC00158 (11744669_a_at) / RFU DUSP10 (11751237_a_at) / Fold change /veh DUSP10 (11751237_a_at) / RFU ID3 (11757404_x_at) / Fold change /veh ID3 (11757404_x_at) / RFU PLEKHG5 (11737974_s_at) / Fold change /veh PLEKHG5 (11737974_s_at) / RFU LRRC4B (11730491_at) / Fold change /veh LRRC4B (11730491_at) / RFU GIMAP4 (11747438_a_at) / Fold change /veh GIMAP4 (11747438_a_at) / RFU KRT8 (11758183_x_at) / Fold change /veh KRT8 (11758183_x_at) / RFU CNN1 (11734310_a_at) / Fold change /veh CNN1 (11734310_a_at) / RFU VPS37D (11726825_at) / Fold change /veh VPS37D (11726825_at) / RFU C10orf10 (11716522_x_at) / Fold change /veh C10orf10 (11716522_x_at) / RFU KIR2DL2 /// KIR2DL4 /// KIR2DL5A /// KIR2DL5B /// KIR2DS1 /// KIR2DS2 /// KIR2DS3 /// KIR2DS4 /// KIR3DL3 /// KIR3DL3 /// KIR3DS1 (11738374_at) / Fold change /veh KIR2DL2 /// KIR2DL4 /// KIR2DL5A /// KIR2DL5B /// KIR2DS1 /// KIR2DS2 /// KIR2DS3 /// KIR2DS4 /// KIR3DL3 /// KIR3DL3 /// KIR3DS1 (11738374_at) / RFU C1QL1 (11718748_at) / Fold change /veh C1QL1 (11718748_at) / RFU TMPRSS4 (11747572_a_at) / Fold change /veh TMPRSS4 (11747572_a_at) / RFU HAMP (11756126_x_at) / Fold change /veh HAMP (11756126_x_at) / RFU RNFT2 (11725882_a_at) / Fold change /veh RNFT2 (11725882_a_at) / RFU NR4A2 (11747474_a_at) / Fold change /veh NR4A2 (11747474_a_at) / RFU ABCC12 (11746883_a_at) / Fold change /veh ABCC12 (11746883_a_at) / RFU TMEM136 (11760407_x_at) / Fold change /veh TMEM136 (11760407_x_at) / RFU CLDN22 /// WWC2 (11732394_at) / Fold change /veh CLDN22 /// WWC2 (11732394_at) / RFU HLA-DPB1 (11760878_x_at) / Fold change /veh HLA-DPB1 (11760878_x_at) / RFU SPINT1 (11716480_a_at) / Fold change /veh SPINT1 (11716480_a_at) / RFU GAP43 (11754022_s_at) / Fold change /veh GAP43 (11754022_s_at) / RFU A4GNT (11735810_at) / Fold change /veh A4GNT (11735810_at) / RFU PRB3 (11715151_x_at) / Fold change /veh PRB3 (11715151_x_at) / RFU TUBB4B (11761932_at) / Fold change /veh TUBB4B (11761932_at) / RFU CAPN14 (11732068_a_at) / Fold change /veh CAPN14 (11732068_a_at) / RFU TMCC2 (11721928_a_at) / Fold change /veh TMCC2 (11721928_a_at) / RFU IRGQ (11745062_a_at) / Fold change /veh IRGQ (11745062_a_at) / RFU FAM174B (11720279_a_at) / Fold change /veh FAM174B (11720279_a_at) / RFU TMPRSS4 (11748680_a_at) / Fold change /veh TMPRSS4 (11748680_a_at) / RFU FAM212B (11763350_a_at) / Fold change /veh FAM212B (11763350_a_at) / RFU PLEKHG5 (11743358_a_at) / Fold change /veh PLEKHG5 (11743358_a_at) / RFU ZSCAN30 (11745921_a_at) / Fold change /veh ZSCAN30 (11745921_a_at) / RFU CMKLR1 (11741424_a_at) / Fold change /veh CMKLR1 (11741424_a_at) / RFU LOC101060620 /// MAPK8IP1 (11723275_at) / Fold change /veh LOC101060620 /// MAPK8IP1 (11723275_at) / RFU SPTSSB (11747773_x_at) / Fold change /veh SPTSSB (11747773_x_at) / RFU PRSS12 (11739890_at) / Fold change /veh PRSS12 (11739890_at) / RFU BIN1 (11741810_x_at) / Fold change /veh BIN1 (11741810_x_at) / RFU WNT11 (11732464_a_at) / Fold change /veh WNT11 (11732464_a_at) / RFU C10orf10 (11716521_a_at) / Fold change /veh C10orf10 (11716521_a_at) / RFU C5orf56 (11738089_at) / Fold change /veh C5orf56 (11738089_at) / RFU CYB561 (11721691_x_at) / Fold change /veh CYB561 (11721691_x_at) / RFU ANKRD19P (11752326_a_at) / Fold change /veh ANKRD19P (11752326_a_at) / RFU OR2T12 /// OR2T33 /// OR2T8 (11738714_s_at) / Fold change /veh OR2T12 /// OR2T33 /// OR2T8 (11738714_s_at) / RFU VCAN (11748164_a_at) / Fold change /veh VCAN (11748164_a_at) / RFU JSRP1 (11732532_at) / Fold change /veh JSRP1 (11732532_at) / RFU KRTAP10-11 (11738290_x_at) / Fold change /veh KRTAP10-11 (11738290_x_at) / RFU MYO3A (11730013_a_at) / Fold change /veh MYO3A (11730013_a_at) / RFU EBF3 (11725865_a_at) / Fold change /veh EBF3 (11725865_a_at) / RFU CAMK2N1 (11719241_x_at) / Fold change /veh CAMK2N1 (11719241_x_at) / RFU C5orf56 (11738088_a_at) / Fold change /veh C5orf56 (11738088_a_at) / RFU OLFML3 (11715873_a_at) / Fold change /veh OLFML3 (11715873_a_at) / RFU LOC100653217 /// NTM (11731650_a_at) / Fold change /veh LOC100653217 /// NTM (11731650_a_at) / RFU MAPK11 (11762145_a_at) / Fold change /veh MAPK11 (11762145_a_at) / RFU FIZ1 (11724087_x_at) / Fold change /veh FIZ1 (11724087_x_at) / RFU OASL (11726364_x_at) / Fold change /veh OASL (11726364_x_at) / RFU SOX15 (11748057_x_at) / Fold change /veh SOX15 (11748057_x_at) / RFU CD79A (11719716_a_at) / Fold change /veh CD79A (11719716_a_at) / RFU HIST1H1D (11736915_at) / Fold change /veh HIST1H1D (11736915_at) / RFU CASKIN2 (11723855_a_at) / Fold change /veh CASKIN2 (11723855_a_at) / RFU LOC730098 (11760151_x_at) / Fold change /veh LOC730098 (11760151_x_at) / RFU OR4N2 (11742367_at) / Fold change /veh OR4N2 (11742367_at) / RFU PRRT2 (11749266_a_at) / Fold change /veh PRRT2 (11749266_a_at) / RFU SNX32 (11753110_a_at) / Fold change /veh SNX32 (11753110_a_at) / RFU CDHR5 (11726645_a_at) / Fold change /veh CDHR5 (11726645_a_at) / RFU RCAN1 (11760418_a_at) / Fold change /veh RCAN1 (11760418_a_at) / RFU FAM167A (11723789_a_at) / Fold change /veh FAM167A (11723789_a_at) / RFU FAM26E (11764081_at) / Fold change /veh FAM26E (11764081_at) / RFU ISYNA1 (11749810_s_at) / Fold change /veh ISYNA1 (11749810_s_at) / RFU ACY1 (11761880_at) / Fold change /veh ACY1 (11761880_at) / RFU 11764098_at / Fold change /veh 11764098_at / RFU SAMD14 (11745864_x_at) / Fold change /veh SAMD14 (11745864_x_at) / RFU NPB (11741838_a_at) / Fold change /veh NPB (11741838_a_at) / RFU TMPRSS6 (11731388_a_at) / Fold change /veh TMPRSS6 (11731388_a_at) / RFU KRTAP10-2 (11738614_at) / Fold change /veh KRTAP10-2 (11738614_at) / RFU ARHGAP8 /// PRR5-ARHGAP8 (11727945_x_at) / Fold change /veh ARHGAP8 /// PRR5-ARHGAP8 (11727945_x_at) / RFU KRTAP5-7 /// NADSYN1 (11734609_at) / Fold change /veh KRTAP5-7 /// NADSYN1 (11734609_at) / RFU RASL12 (11751679_a_at) / Fold change /veh RASL12 (11751679_a_at) / RFU CDKN2B (11736163_a_at) / Fold change /veh CDKN2B (11736163_a_at) / RFU PRF1 (11729649_at) / Fold change /veh PRF1 (11729649_at) / RFU, ZNF638 /// ZNF638-IT1 / Fold change vs veh, ZNF638 /// ZNF638-IT1 / RFU, PANK3 / Fold change vs veh, PANK3 / RFU, SH3YL1 / Fold change vs veh, SH3YL1 / RFU, ZEB2 / Fold change vs veh, ZEB2 / RFU, NRIP1 / Fold change vs veh, NRIP1 / RFU, PTTG1IP / Fold change vs veh, PTTG1IP / RFU, CAPN2 / Fold change vs veh, CAPN2 / RFU, MED14 / Fold change vs veh, MED14 / RFU, SNORA58 / Fold change vs veh, SNORA58 / RFU, C1orf63 / Fold change vs veh, C1orf63 / RFU, LRRFIP1 / Fold change vs veh, LRRFIP1 / RFU, NDUFAF7 / Fold change vs veh, NDUFAF7 / RFU, SLC12A2 / Fold change vs veh, SLC12A2 / RFU, IBTK / Fold change vs veh, IBTK / RFU, ESF1 / Fold change vs veh, ESF1 / Fold change vs veh, TMEM50B / RFU, TAOK1 / Fold change vs veh, TAOK1 / RFU, ACBD3 / Fold change vs veh, ACBD3 / RFU, TMA16 / Fold change vs veh, TMA16 / RFU, RWDD3 / Fold change vs veh, RWDD3 / RFU, BCAT1 / Fold change vs veh, BCAT1 / RFU, EDEM3 / Fold change vs veh, EDEM3 / RFU, TMEM33 / Fold change vs veh, TMEM33 / RFU, WDR75 / Fold change vs veh, WDR75 / RFU, AHCTF1 / Fold change vs veh, AHCTF1 / RFU, TFRC / Fold change vs veh, TFRC / RFU, ZDHHC17 / Fold change vs veh, ZDHHC17 / RFU, NOM1 / Fold change vs veh, NOM1 / RFU, ARL8B / Fold change vs veh, ARL8B / RFU, ZBTB11 / Fold change vs veh, ZBTB11 / RFU, TAMM41 / Fold change vs veh, TAMM41 / RFU, KIAA1704 /// LOC100996395 / Fold change vs veh, KIAA1704 /// LOC100996395 / RFU, ING1 / Fold change vs veh, ING1 / RFU, TRMT61B / Fold change vs veh, TRMT61B / RFU, FUBP3 / Fold change vs veh, FUBP3 / RFU, TP53 / Fold change vs veh, TP53 / RFU, TNKS2 / Fold change vs veh, TNKS2 / RFU, ZFP14 / Fold change vs veh, ZFP14 / RFU, ACTR2 / Fold change vs veh, ACTR2 / RFU, PPP3R1 / Fold change vs veh, PPP3R1 / RFU, PIK3R1 / Fold change vs veh, PIK3R1 / RFU, HNRNPA1 / Fold change vs veh, HNRNPA1 / RFU, RNF170 / Fold change vs veh, RNF170 / RFU, ZNF28 / Fold change vs veh, ZNF28 / RFU, RNGTT / Fold change vs veh, RNGTT / RFU, OGT / Fold change vs veh, OGT / RFU, BRD1 / Fold change vs veh, BRD1 / RFU, MARS / Fold change vs veh, MARS / RFU, ZNF655 / Fold change vs veh, ZNF655 / RFU, FAHD1 / Fold change vs veh, FAHD1 / RFU, BDP1 / Fold change vs veh, BDP1 / RFU, LRRCC1 / Fold change vs veh, LRRCC1 / RFU, ARID1A / Fold change vs veh, ARID1A / RFU, ZNF146 / Fold change vs veh, ZNF146 / RFU, ZNF330 / Fold change vs veh, ZNF330 / RFU, GPN3 / Fold change vs veh, GPN3 / RFU, C9orf123 / Fold change vs veh, C9orf123 / RFU, N4BP2L2 / Fold change vs veh, N4BP2L2 / RFU, ARFIP1 / Fold change vs veh, ARFIP1 / RFU, FAM179B / Fold change vs veh, FAM179B / RFU, BCL10 / Fold change vs veh, BCL10 / RFU, UHRF1BP1L / Fold change vs veh, UHRF1BP1L / RFU, BET1 / Fold change vs veh, BET1 / RFU, CNOT2 / Fold change vs veh, CNOT2 / RFU, ZNF268 / Fold change vs veh, ZNF268 / Fold change vs veh, ZNF507 / RFU, DGCR2 / Fold change vs veh, DGCR2 / RFU, WDSUB1 / Fold change vs veh, WDSUB1 / Fold change vs veh, HSP90B1 /// MIR3652 / RFU, ADSS / Fold change vs veh, ADSS / RFU, GK / Fold change vs veh, GK / RFU, ZNF148 / Fold change vs veh, ZNF148 / RFU, TAF9 / Fold change vs veh, TAF9 / RFU, SLC1A5 / Fold change vs veh, SLC1A5 / RFU, SLMO2 / Fold change vs veh, SLMO2 / RFU, ABCC4 / Fold change vs veh, ABCC4 / RFU, LOC101060439 /// RAP1B / Fold change vs veh, LOC101060439 /// RAP1B / RFU, RFX7 / Fold change vs veh, RFX7 / RFU, GTPBP10 / Fold change vs veh, GTPBP10 / RFU, CNEP1R1 / Fold change vs veh, CNEP1R1 / RFU, BIVM-ERCC5 /// ERCC5 / Fold change vs veh, BIVM-ERCC5 /// ERCC5 / RFU, ILF3 / Fold change vs veh, ILF3 / RFU 11762660_at / Fold change /veh 11762660_at / RFU VCAN (11757783_s_at) / Fold change /veh VCAN (11757783_s_at) / RFU DDX43 (11728927_at) / Fold change /veh DDX43 (11728927_at) / RFU KRT8 (11758188_x_at) / Fold change /veh KRT8 (11758188_x_at) / RFU NKD1 (11759106_at) / Fold change /veh NKD1 (11759106_at) / RFU SRD5A1 (11742802_a_at) / Fold change /veh SRD5A1 (11742802_a_at) / RFU TPSAB1 /// TPSB2 (11721975_s_at) / Fold change /veh TPSAB1 /// TPSB2 (11721975_s_at) / RFU GSTM3 (11746129_a_at) / Fold change /veh GSTM3 (11746129_a_at) / RFU IL23R (11737362_x_at) / Fold change /veh IL23R (11737362_x_at) / RFU TMEM51 (11727254_a_at) / Fold change /veh TMEM51 (11727254_a_at) / RFU PIWIL2 (11732686_x_at) / Fold change /veh PIWIL2 (11732686_x_at) / RFU ORM1 (11744905_x_at) / Fold change /veh ORM1 (11744905_x_at) / RFU CCDC152 (11743942_at) / Fold change /veh CCDC152 (11743942_at) / RFU ECM1 (11717891_a_at) / Fold change /veh ECM1 (11717891_a_at) / RFU IL23R (11748794_a_at) / Fold change /veh IL23R (11748794_a_at) / RFU TNFAIP8L3 (11732012_x_at) / Fold change /veh TNFAIP8L3 (11732012_x_at) / RFU MBOAT4 (11741988_at) / Fold change /veh MBOAT4 (11741988_at) / RFU 11764193_at / Fold change /veh 11764193_at / RFU TMEM53 (11763286_at) / Fold change /veh TMEM53 (11763286_at) / RFU MAGEB2 (11727129_at) / Fold change /veh MAGEB2 (11727129_at) / RFU TMEM200A (11744735_a_at) / Fold change /veh TMEM200A (11744735_a_at) / RFU CCDC152 (11751479_a_at) / Fold change /veh CCDC152 (11751479_a_at) / RFU FAM211A (11726209_a_at) / Fold change /veh FAM211A (11726209_a_at) / RFU RGS16 (11746705_a_at) / Fold change /veh RGS16 (11746705_a_at) / RFU VCAN (11755009_s_at) / Fold change /veh VCAN (11755009_s_at) / RFU RHOB (11743442_s_at) / Fold change /veh RHOB (11743442_s_at) / RFU RGS16 (11720943_a_at) / Fold change /veh RGS16 (11720943_a_at) / RFU RGS16 (11720944_at) / Fold change /veh RGS16 (11720944_at) / RFU, VPS4B / Fold change vs veh, VPS4B / RFU, CREB1 / Fold change vs veh, CREB1 / RFU, DNAJC13 / Fold change vs veh, DNAJC13 / RFU, GNAQ / Fold change vs veh, GNAQ / RFU, CDK5R1 / Fold change vs veh, CDK5R1 / RFU, ZRANB3 / Fold change vs veh, ZRANB3 / RFU, CUL4A / Fold change vs veh, CUL4A / RFU, CCNY / Fold change vs veh, CCNY / RFU, UFL1 / Fold change vs veh, UFL1 / RFU, COG3 / Fold change vs veh, COG3 / RFU, DIAPH2 / Fold change vs veh, DIAPH2 / RFU, SKA2 / Fold change vs veh, SKA2 / RFU, AFF3 / Fold change vs veh, AFF3 / RFU, LMF1 / Fold change vs veh, LMF1 / RFU, IPO11 / Fold change vs veh, IPO11 / RFU, DFFB / Fold change vs veh, DFFB / RFU, FOXP1 / Fold change vs veh, FOXP1 / RFU, CARD8 / Fold change vs veh, CARD8 / RFU, STRN3 / Fold change vs veh, STRN3 / RFU, ADK / Fold change vs veh, ADK / RFU, RASSF2 / Fold change vs veh, RASSF2 / RFU, WIPF1 / Fold change vs veh, WIPF1 / RFU, LARP1B / Fold change vs veh, LARP1B / RFU, RASA1 / Fold change vs veh, RASA1 / RFU, RB1 / Fold change vs veh, RB1 / RFU, PPFIA1 / Fold change vs veh, PPFIA1 / RFU, MAT2A / Fold change vs veh, MAT2A / RFU, CCT5 / Fold change vs veh, CCT5 / RFU, WDR92 / Fold change vs veh, WDR92 / RFU, CUX1 / Fold change vs veh, CUX1 / RFU, TTC7A / Fold change vs veh, TTC7A / RFU, TMEM135 / Fold change vs veh, TMEM135 / RFU, DEPTOR / Fold change vs veh, DEPTOR / RFU, CPM / Fold change vs veh, CPM / RFU, DNAJB6 / Fold change vs veh, DNAJB6 / RFU, CACNA2D3 / Fold change vs veh, CACNA2D3 / RFU, DTX4 / Fold change vs veh, DTX4 / RFU, TFCP2 / Fold change vs veh, TFCP2 / RFU, GMCL1 /// GMCL1P1 / Fold change vs veh, GMCL1 /// GMCL1P1 / RFU, AEBP2 / Fold change vs veh, AEBP2 / RFU, SNHG1 /// SNORD22 /// SNORD25 /// SNORD26 /// SNORD27 /// SNORD28 /// SNORD29 /// SNORD31 / Fold change vs veh, SNHG1 /// SNORD22 /// SNORD25 /// SNORD26 /// SNORD27 /// SNORD28 /// SNORD29 /// SNORD31 / Fold change (Aza/veh), C12orf56 (ProbeSet 11735607_a_at) / Fold change (ACY-1035/veh), C12orf56 (ProbeSet 11735607_a_at) / Fold change (Aza/veh), FGFR1OP (ProbeSet 11751329_s_at) / Fold change (ACY-1035/veh), FGFR1OP (ProbeSet 11751329_s_at) / Fold change (Aza/veh), VPS36 (ProbeSet 11739960_a_at) / Fold change (ACY-1035/veh), VPS36 (ProbeSet 11739960_a_at) / RFU SYPL1 (11715823_x_at) / Fold change /veh SYPL1 (11715823_x_at) / RFU IGFBP7 (11715501_s_at) / Fold change /veh IGFBP7 (11715501_s_at) / RFU REEP3 (11722064_at) / Fold change /veh REEP3 (11722064_at) / RFU IGLL1 (11728026_x_at) / Fold change /veh IGLL1 (11728026_x_at): dose or concentration left out as unconfirmed
Settings: ProbeSet 11743510_at; LIST D

Nc1ccc(-c2cccs2)cc1NC(=O)c1ccc2c(c1)cc(C1CC1)n2CCN1CCOCC1 [ACY-1035]
RFU, UFL1: 325.04 RFU
